From ChEMBL document CHEMBL4007397, “Discovery of First-in-Class, Potent, and Orally Bioavailable Embryonic Ectoderm Development (EED) Inhibitor with Robust Anticancer Efficacy” (J Med Chem, 2017)
Values after ≈ are worked out from the molar mass of the structure shown. Values belong to the compound of their own block, whether it stands above or below them. Active and inactive are the calls of the source. No cut-off for these calls is given here.

How the values were obtained:
Polycomb protein EED [1] = target: T1, Polycomb protein EED (Homo sapiens, UniProt O75530)
T1 sequence (O75530 whole entry): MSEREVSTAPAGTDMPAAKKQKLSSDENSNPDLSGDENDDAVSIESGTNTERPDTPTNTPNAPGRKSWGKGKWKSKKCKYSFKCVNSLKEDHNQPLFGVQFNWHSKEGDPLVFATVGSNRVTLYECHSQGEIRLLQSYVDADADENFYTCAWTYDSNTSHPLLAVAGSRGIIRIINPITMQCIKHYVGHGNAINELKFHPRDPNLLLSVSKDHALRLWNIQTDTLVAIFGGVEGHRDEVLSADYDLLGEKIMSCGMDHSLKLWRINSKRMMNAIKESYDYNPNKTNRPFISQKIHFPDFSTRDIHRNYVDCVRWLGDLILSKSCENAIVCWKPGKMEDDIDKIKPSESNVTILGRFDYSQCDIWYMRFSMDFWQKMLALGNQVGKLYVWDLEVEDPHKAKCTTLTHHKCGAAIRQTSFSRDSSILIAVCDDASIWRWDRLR
Description: Inhibition of recombinant N-terminal GST-tagged EED (76 to 441 residues) (unknown origin) expressed in Escherichia coli BL21-CodonPlus(DE3)-RIL assessed as reduction in SAH production using H3[21-44,K27Me0) peptide as substrate measured after 20 mins by LC/MS/MS method

[2] = (§1) Oral bioavailability in CD-1 mouse at 2 mg/kg by LC-MS/MS analysis; format: ADME, organism-based; conditions: CD-1, mouse, in vivo
Polycomb protein EED [3] = target: T1, Polycomb protein EED; test: Inhibition of EED in human G401 cells assessed as reduction in global H3K27me3 level after 48 hrs by ELISA; format: cell-based
[4] = Protein binding in mouse plasma assessed as unbound fraction; format: ADME, cell-free
Mus musculus [5] = test: Dose normalized AUC in CD-1 mouse at 2 mg/kg, po by LC-MS/MS analysis; format: ADME, organism-based; conditions: in vivo
[6] = Hepatic extraction ratio in mouse liver microsomes; format: ADME, microsome; conditions: read-out: ERH
Mus musculus [7] = test: Dose normalized unbound AUC in CD-1 mouse at 2 mg/kg, po by LC-MS/MS analysis; format: ADME, organism-based; conditions: in vivo
Mus musculus [8] = test: Dose normalized AUC in CD-1 mouse at 1 mg/kg, iv by LC-MS/MS analysis; format: ADME, organism-based; conditions: in vivo
KARPAS-422 [9] = test: Antiproliferative activity against human KARPAS422 cells harboring monoallelic Y641N EZH2 mutation assessed as reduction in cell viability measured every 3 to 4 days up to 14 days by Beckman Coulter-based method; format: functional
in vivo [10] = conditions: CD-1, mouse
in vivo [11] = conditions: CD-1, mouse, iv, 1 mg/kg
Description: Volume of distribution at steady state in CD-1 mouse at 1 mg/kg, iv or 2 mg/kg, po by LC-MS/MS analysis

in vivo [12] = conditions: CD-1, mouse, plasma, iv, 1 mg/kg
Polycomb protein EED [13] = target: T1, Polycomb protein EED; test: Inhibition of recombinant N-terminal GST-tagged EED (76 to 441 residues) (unknown origin) expressed in Escherichia coli BL21-CodonPlus(DE3)-RIL incubated for 20 mins using EED-H3K27me3 peptide based AlphaScreen competition binding assay
Mus musculus [14] = test: as §1; format: ADME, organism-based; conditions: mouse, in vivo
Rattus norvegicus = test: Dose normalized unbound AUC in Sprague-Dawley rat at 2 mg/kg, po by LC-MS/MS analysis; format: ADME, organism-based; conditions: in vivo
[15] = Plasma protein binding in Beagle dog assessed as unbound fraction; format: ADME, cell-free, Canis lupus familiaris
[16] = Oral bioavailability in Sprague-Dawley rat at 2 mg/kg by LC-MS/MS analysis; format: ADME, organism-based; conditions: in vivo
[17] = Protein binding in human plasma assessed as unbound fraction; format: ADME, cell-free
[18] = Oral bioavailability in Beagle dog at 2 mg/kg by LC-MS/MS analysis; format: ADME, organism-based, Canis lupus familiaris; conditions: in vivo
Mus musculus [19] = test: Antitumor activity against human KARPAS422 cells xenografted in Balb/C nude mouse assessed as reduction in tumor volume at 1.5 to 40 mg/kg, po BID for 2 weeks; format: functional, organism-based
[20] = Total clearance in Sprague-Dawley rat at 1 mg/kg, iv or 2 mg/kg, po by LC-MS/MS analysis; format: ADME, organism-based; conditions: in vivo
[21] = Solubility of the crystalline form of compound at pH 3; format: physicochemical
Canis familiaris = test: Dose normalized unbound AUC in Beagle dog at 2 mg/kg, po by LC-MS/MS analysis; format: ADME, organism-based, Canis lupus familiaris; conditions: in vivo
[22] = Solubility of the crystalline form of compound in simulated gastric fluid; format: physicochemical
[23] = Solubility of the crystalline form of compound in fasted state simulated intestinal fluid; format: physicochemical
KARPAS-422 [24] = test: Antitumor activity against human KARPAS422 cells xenografted in Balb/C nude mouse assessed as tumor regression at 300 mg/kg, po BID for 34 days; format: functional, organism-based
[25] = Total clearance in Beagle dog at 1 mg/kg, iv or 2 mg/kg, po by LC-MS/MS analysis; format: ADME, organism-based, Canis lupus familiaris; conditions: in vivo
[26] = Solubility of the crystalline form of compound at pH 7; format: physicochemical
[27] = Equilibrium solubility of the compound by high-throughput assay; format: physicochemical
Mus musculus [28] = test: Toxicity in CD-1 mouse assessed as effect on body weight at 300 mg/kg, po BID after 14 day; format: organism-based; conditions: in vivo, 336 h
[29] = Permeability across apical to basolateral side of human Caco2 cells; format: ADME, cell-based; conditions: Caco-2, read-out: permeability
Mus musculus [30] = test: In-vivo inhibition of EED in Balb/C nude mouse xenografted with human KARPAS422 cells assessed as decrease in global H3K27me3 level at 1.5 to 40 mg/kg, po BID for 21 days; format: functional, organism-based
[31] = Protein binding in Sprague-Dawley rat plasma assessed as unbound fraction; format: ADME, cell-free

Structure (SMILES): Cc1ccc(CNc2ncc(-c3ccc(CN(C)C)cc3)c3nncn23)s1
IC50 (Polycomb protein EED [1]): 12400 nM

Structure (SMILES): Cc1ccsc1CNc1c(C#N)cc(-c2ccc(CN(C)C)cc2)c2nncn12
IC50 (Polycomb protein EED [1]): 21800 nM

Structure (SMILES): Cc1ccsc1CNc1ncc(-c2ccc(CN(C)C)cc2)c2nncn12
IC50 (Polycomb protein EED [1]): 49 nM

Structure (SMILES): CN(C)Cc1ccc(-c2cc(C#N)c(NCc3ccccc3)n3cnnc23)cc1
IC50 (Polycomb protein EED [1]): 21800 nM

Structure (SMILES): c1coc(CNc2ncc(-c3ccc(CN4CCCC4)cc3)c3nncn23)c1
bioavailability [2]: 71%
IC50 (Polycomb protein EED [3]): 32 nM
fraction unbound [4]: 0.381
AUC/dose (Mus musculus [5]): 531 nM·h
hepatic extraction ratio [6]: 0.52
fAUC/dose (Mus musculus [7]): 202 nM·h
AUC/dose (Mus musculus [8]): 765 nM·h
IC50 (KARPAS-422 [9]): 88 nM
IC50 (Polycomb protein EED [1]): 7 nM

Structure (SMILES): CCN(c1cc(-c2ccc(CN3CCOCC3)cc2)cc(C(=O)NCc2c(C)cc(C)[nH]c2=O)c1C)C1CCOCC1 [TAZEMETOSTAT]
bioavailability [2]: 20%
fraction unbound [4]: 0.014
half-life (in vivo [10]): 1.6 h
Vd (in vivo [11]): 1.2 L/kg
AUC/dose (Mus musculus [5]): 254 nM·h
clearance (in vivo [12]): 22 mL/min/kg
fAUC/dose (Mus musculus [7]): 4 nM·h
AUC/dose (Mus musculus [8]): 1303 nM·h
IC50 (KARPAS-422 [9]): 12 nM

Structure (SMILES): CN(C)Cc1ccc(-c2cc(C#N)c(NCc3cnco3)n3cnnc23)cc1
IC50 (Polycomb protein EED [1]): 150 nM

Structure (SMILES): N#Cc1c2c(c3nncn3c1NCc1ccco1)CN(Cc1ccccc1)CC2
IC50 (Polycomb protein EED [3]): 3280 nM
IC50 (Polycomb protein EED [13]): 620 nM
IC50 (Polycomb protein EED [1]): 4030 nM

Structure (SMILES): N#Cc1c2c(c3nncn3c1Cl)CN(Cc1ccccc1)CC2
IC50 (Polycomb protein EED [1]): > 100000 nM

Structure (SMILES): CN(C)Cc1ccc(-c2cnc(NCc3ccco3)n3cnnc23)cc1
IC50 (Polycomb protein EED [1]): 13 nM

Structure (SMILES): CS(=O)(=O)c1ccc(-c2cnc(NCc3ccco3)n3cnnc23)cc1
F (Mus musculus [14]): 109%
fAUC/dose (Rattus norvegicus): 1871 nM·h
fraction unbound [15]: 0.24
bioavailability [16]: 60%
fraction unbound [17]: 0.13
bioavailability [18]: 68%
Activity (Mus musculus [19]): Active
clearance [20]: 14 mL/min/kg
IC50 (Polycomb protein EED [3]): 220 nM
fraction unbound [4]: 0.144 to 0.15
solubility [21]: 26 µg/mL (≈ 70.4 µM)
fAUC/dose (Canis familiaris): 1907 nM·h
solubility [22]: 55 µg/mL (≈ 149 µM)
solubility thermodynamic [23]: 35 µg/mL (≈ 94.7 µM)
half-life (in vivo [10]): 2.2 h
Vd (in vivo [11]): 0.8 L/kg
Activity (KARPAS-422 [24]): Active
clearance [25]: 16 mL/min/kg
AUC/dose (Mus musculus [5]): 5648 nM·h
solubility [26]: 25 µg/mL (≈ 67.7 µM)
solubility thermodynamic [27]: 12 µM (≈ 4.43 µg/mL)
Activity (Mus musculus [28]): Non-Toxic
clearance (in vivo [12]): 8 mL/min/kg
Papp A→B [29]: 3 ×10⁻⁶ cm/s
fAUC/dose (Mus musculus [7]): 813 nM·h
AUC/dose (Mus musculus [8]): 534 nM·h
IC50 (KARPAS-422 [9]): 80 nM
Activity (Mus musculus [30]): Dose-dependent effect
IC50 (Polycomb protein EED [1]): 22 nM
fraction unbound [31]: 0.08

Structure (SMILES): c1ccc(-c2cnc(NCc3ccco3)n3cnnc23)cc1
IC50 (Polycomb protein EED [1]): 52 nM

Structure (SMILES): N#Cc1ccc2nncn2c1NCc1ccco1
IC50 (Polycomb protein EED [1]): 1000 nM

Structure (SMILES): CN(C)Cc1ccc(-c2cc(C#N)c(NCc3ccon3)n3cnnc23)cc1
IC50 (Polycomb protein EED [1]): 69 nM

Structure (SMILES): CN(C)Cc1ccc(-c2cnc(NCc3ccon3)n3cnnc23)cc1
IC50 (Polycomb protein EED [1]): 770 nM

Structure (SMILES): CN(C)Cc1ccc(-c2cnc(NCc3ccc(F)s3)n3cnnc23)cc1
IC50 (Polycomb protein EED [1]): 150 nM

Structure (SMILES): N#Cc1cc(-c2ccccc2F)c2nncn2c1NCc1ccco1
bioavailability [2]: 42%
IC50 (Polycomb protein EED [3]): 210 nM
fraction unbound [4]: 0.0281
AUC/dose (Mus musculus [5]): 714 nM·h
hepatic extraction ratio [6]: 0.8
fAUC/dose (Mus musculus [7]): 20.1 nM·h
AUC/dose (Mus musculus [8]): 1751 nM·h
IC50 (KARPAS-422 [9]): 76 nM
IC50 (Polycomb protein EED [1]): 30 nM

Structure (SMILES): CN(C)Cc1ccc(-c2cnc(NCc3ccoc3)n3cnnc23)cc1
IC50 (Polycomb protein EED [1]): 19 nM

Structure (SMILES): CN(C)Cc1ccc(-c2cnc(NCc3ccno3)n3cnnc23)cc1
IC50 (Polycomb protein EED [1]): 130 nM

Structure (SMILES): CN(C)Cc1ccc(-c2cnc(NCc3sccc3Cl)n3cnnc23)cc1
IC50 (Polycomb protein EED [1]): 53 nM

Structure (SMILES): CN(C)Cc1ccc(-c2cc(C#N)c(NCc3cccs3)n3cnnc23)cc1
IC50 (Polycomb protein EED [1]): 20 nM

Structure (SMILES): CN(C)Cc1ccc(-c2cc(C#N)c(NCc3ccoc3)n3cnnc23)cc1
IC50 (Polycomb protein EED [1]): 9 nM

Structure (SMILES): CN(C)Cc1ccc(-c2cc(C#N)c(NCc3ccno3)n3cnnc23)cc1
IC50 (Polycomb protein EED [1]): 69 nM

More lines, now with the values ahead:

IC50 (Polycomb protein EED [1]): 2220 nM
Structure (SMILES): Cc1ccc(CNc2c(C#N)cc(-c3ccc(CN(C)C)cc3)c3nncn23)s1

IC50 (Polycomb protein EED [1]): 14900 nM
Structure (SMILES): COc1ccccc1CNc1c(C#N)cc(-c2ccc(CN(C)C)cc2)c2nncn12

IC50 (Polycomb protein EED [1]): 62 nM
Structure (SMILES): N#Cc1cc(-c2ccccc2)c2nncn2c1NCc1ccco1

IC50 (Polycomb protein EED [1]): 93 nM
Structure (SMILES): CN(C)Cc1ccc(-c2cnc(NCc3cccs3)n3cnnc23)cc1

IC50 (Polycomb protein EED [1]): 94 nM
Structure (SMILES): COc1ccccc1CNc1ncc(-c2ccc(CN(C)C)cc2)c2nncn12

IC50 (Polycomb protein EED [1]): 510 nM
Structure (SMILES): CN(C)Cc1ccc(-c2cc(C#N)c(NCc3ccc(F)s3)n3cnnc23)cc1

IC50 (Polycomb protein EED [1]): 290 nM
Structure (SMILES): CN(C)Cc1ccc(-c2cnc(NCc3cnco3)n3cnnc23)cc1

IC50 (Polycomb protein EED [1]): 9 to 13 nM
Structure (SMILES): CN(C)Cc1ccc(-c2cc(C#N)c(NCc3ccco3)n3cnnc23)cc1

IC50 (Polycomb protein EED [1]): 49 nM
Structure (SMILES): CN(C)Cc1ccc(-c2cnc(NCc3ccccc3)n3cnnc23)cc1

IC50 (Polycomb protein EED [1]): 14800 nM
Structure (SMILES): c1ccc(-c2ccc(NCc3ccco3)n3cncc23)cc1

IC50 (Polycomb protein EED [1]): 2340 nM
Structure (SMILES): CN(C)Cc1ccc(-c2cc(C#N)c(NCc3sccc3Cl)n3cnnc23)cc1
